Measurements reported in ChEMBL document CHEMBL3862012, “Methylene versus carbonyl bridge in the structure of new tubulin polymerization inhibitors with tricyclic A-rings” (Bioorg Med Chem, 2016).

Tests used:
Format in all cases: functional
[1] = Cytotoxicity against human HT-29 cells assessed as growth inhibition at 10 uM after 48 hrs by SRB assay relative to control; details: HT-29, 48 h, read-out: GI
[2] = Cytotoxicity against human NCI-H322M cells assessed as growth inhibition at 10 uM after 48 hrs by SRB assay relative to control; details: read-out: GI
[3] = Cytotoxicity against human LOXIMVI cells assessed as growth inhibition after 48 hrs by SRB assay; details: LOX IMVI
[4] = Cytotoxicity against human NCI-H460 cells assessed as growth inhibition after 48 hrs by SRB assay; details: NCI-H460, 48 h
[5] = Cytotoxicity against human HT-29 cells assessed as growth inhibition after 48 hrs by SRB assay; details: HT-29, 48 h
[6] = Cytotoxicity against human MCF7 cells assessed as growth inhibition at 10 uM after 48 hrs by SRB assay relative to control; details: MCF7, 48 h, read-out: GI
[7] = Cytotoxicity against human PC3 cells assessed as growth inhibition after 48 hrs by SRB assay; details: PC-3, 48 h
[8] = Cytotoxicity against human RXF393 cells assessed as growth inhibition after 48 hrs by SRB assay; details: RXF 393, 48 h
[9] = Cytotoxicity against human HOP92 cells assessed as growth inhibition after 48 hrs by SRB assay; details: HOP-92, 48 h
[10] = Cytotoxicity against human OVCAR3 cells assessed as growth inhibition after 48 hrs by SRB assay; details: OVCAR-3, 48 h
[11] = Cytotoxicity against human M14 cells assessed as growth inhibition after 48 hrs by SRB assay; details: M14, 48 h
[12] = Cytotoxicity against human RPMI8226 cells assessed as growth inhibition after 48 hrs by SRB assay; details: RPMI-8226, 48 h
[13] = Cytotoxicity against human OVCAR8 cells assessed as growth inhibition at 10 uM after 48 hrs by SRB assay relative to control; details: OVCAR-8, 48 h, read-out: GI
[14] = Cytotoxicity against human OVCAR3 cells assessed as growth inhibition at 10 uM after 48 hrs by SRB assay relative to control; details: OVCAR-3, 48 h, read-out: GI
[15] = Cytotoxicity against human IGROV1 cells assessed as growth inhibition after 48 hrs by SRB assay; details: IGROV-1, 48 h
[16] = Cytotoxicity against human SW620 cells assessed as growth inhibition at 10 uM after 48 hrs by SRB assay relative to control; details: SW-620, 48 h, read-out: GI
[17] = Cytotoxicity against human LOXIMVI cells assessed as growth inhibition at 10 uM after 48 hrs by SRB assay relative to control; details: LOX IMVI, read-out: GI
[18] = Cytotoxicity against human UO31 cells assessed as growth inhibition after 48 hrs by SRB assay; details: UO-31, 48 h
[19] = Cytotoxicity against human SK-MEL-2 cells assessed as growth inhibition after 48 hrs by SRB assay; details: SK-MEL-2, 48 h
[20] = Cytotoxicity against human EKVX cells assessed as growth inhibition at 10 uM after 48 hrs by SRB assay relative to control; details: read-out: GI
[21] = Cytotoxicity against human SKOV3 cells assessed as growth inhibition after 48 hrs by SRB assay; details: SK-OV-3, 48 h
[22] = Cytotoxicity against human MCF7 cells assessed as growth inhibition after 48 hrs by SRB assay; details: MCF7, 48 h
[23] = Cytotoxicity against human PC3 cells assessed as growth inhibition at 10 uM after 48 hrs by SRB assay relative to control; details: PC-3, 48 h, read-out: GI
[24] = Cytotoxicity against human SF295 cells assessed as growth inhibition after 48 hrs by SRB assay; details: SF-295, 48 h
[25] = Cytotoxicity against human SK-MEL-5 cells assessed as growth inhibition after 48 hrs by SRB assay; details: SK-MEL-5, 48 h
[26] = Cytotoxicity against human HCT15 cells assessed as growth inhibition after 48 hrs by SRB assay; details: HCT-15, 48 h
[27] = Cytotoxicity against human MOLT4 cells assessed as growth inhibition at 10 uM after 48 hrs by SRB assay relative to control; details: MOLT-4, 48 h, read-out: GI
[28] = Cytotoxicity against human HL-60(TB) cells assessed as growth inhibition after 48 hrs by SRB assay; details: HL-60, 48 h
[29] = Cytotoxicity against human CCRF-CEM cells assessed as growth inhibition at 10 uM after 48 hrs by SRB assay relative to control; details: read-out: GI
[30] = Cytotoxicity against human NCI-H23 cells assessed as growth inhibition at 10 uM after 48 hrs by SRB assay relative to control; details: NCI-H23, 48 h, read-out: GI
[31] = Cytotoxicity against human SW620 cells assessed as growth inhibition after 48 hrs by SRB assay; details: SW-620, 48 h
[32] = Cytotoxicity against human NCI-H460 cells assessed as growth inhibition at 10 uM after 48 hrs by SRB assay relative to control; details: NCI-H460, 48 h, read-out: GI
[33] = Cytotoxicity against human BT549 cells assessed as growth inhibition after 48 hrs by SRB assay; details: BT-549, 48 h
[34] = Cytotoxicity against human OVCAR5 cells assessed as growth inhibition at 10 uM after 48 hrs by SRB assay relative to control; details: OVCAR-5, 48 h, read-out: GI
[35] = Cytotoxicity against human NCI-ADR-RES cells assessed as growth inhibition after 48 hrs by SRB assay
[36] = Cytotoxicity against human RXF393 cells assessed as growth inhibition at 10 uM after 48 hrs by SRB assay relative to control; details: RXF 393, 48 h, read-out: GI
[37] = Cytotoxicity against human MALME-3M cells assessed as growth inhibition at 10 uM after 48 hrs by SRB assay relative to control; details: read-out: GI
[38] = Cytotoxicity against human OVCAR8 cells assessed as growth inhibition after 48 hrs by SRB assay; details: OVCAR-8, 48 h
[39] = Cytotoxicity against human UO31 cells assessed as growth inhibition at 10 uM after 48 hrs by SRB assay relative to control; details: UO-31, 48 h, read-out: GI
[40] = Cytotoxicity against human IGROV1 cells assessed as growth inhibition at 10 uM after 48 hrs by SRB assay relative to control; details: IGROV-1, 48 h, read-out: GI
[41] = Cytotoxicity against human NCI-H23 cells assessed as growth inhibition after 48 hrs by SRB assay; details: NCI-H23, 48 h
[42] = Cytotoxicity against human SK-MEL-5 cells assessed as growth inhibition at 10 uM after 48 hrs by SRB assay relative to control; details: SK-MEL-5, 48 h, read-out: GI
[43] = Cytotoxicity against human K562 cells assessed as growth inhibition at 10 uM after 48 hrs by SRB assay relative to control; details: K562, 48 h, read-out: GI

`COc1ccc(CN2c3ccccc3Sc3ccccc32)cc1O` showed an inhibition of growth at 10 µM [1] of 91%, an inhibition of growth at 10 µM [2] of 67% and a GI50 [3] of 710 nM. For the same compound, the GI50 [4] was 444 nM, the GI50 [5] was 724 nM and the inhibition of growth at 10 µM [6] was 74%. For the same compound, the GI50 [7] was 503 nM, the GI50 [8] was 338 nM and the GI50 [9] was 502 nM. It also gave a GI50 [10] of 304 nM, a GI50 [11] of 383 nM and a GI50 [12] of 420 nM. The inhibition of growth at 10 µM [13] was 78%, the inhibition of growth at 10 µM [14] was 93% and the GI50 [15] was 1930 nM. The inhibition of growth at 10 µM [16] was 69%, the inhibition of growth at 10 µM [17] was 57% and the GI50 [18] was 752 nM. It also gave a GI50 [19] of 333 nM, an inhibition of growth at 10 µM [20] of 63% and a GI50 [21] of 0.521 µM. It also gave a GI50 [22] of 355 nM, an inhibition of growth at 10 µM [23] of 74% and a GI50 [24] of 225 nM. For the same compound, the GI50 [25] was 438 nM, the GI50 [26] was 369 nM and the inhibition of growth at 10 µM [27] was 82%. For the same compound, the GI50 [28] was 257 nM, the inhibition of growth at 10 µM [29] was 92% and the inhibition of growth at 10 µM [30] was 63%. It also gave a GI50 [31] of 504 nM, an inhibition of growth at 10 µM [32] of 90% and a GI50 [33] of 773 nM. For the same compound, the inhibition of growth at 10 µM [34] was 14%, the GI50 [35] was 291 nM and the inhibition of growth at 10 µM [36] was 100%. The inhibition of growth at 10 µM [37] was 28%, the GI50 [38] was 508 nM and the inhibition of growth at 10 µM [39] was 76%. The inhibition of growth at 10 µM [40] was 70% and the GI50 [41] was 364 nM.

`COc1ccc(CN2c3ccccc3Sc3ccccc32)c(F)c1` gave an inhibition of growth at 10 µM [1] of 96%, an inhibition of growth at 10 µM [2] of 55% and a GI50 [5] of 35 nM. The inhibition of growth at 10 µM [6] was 77%, the inhibition of growth at 10 µM [42] was 74% and the GI50 [11] was 38 nM. It also gave an inhibition of growth at 10 µM [14] of 100%, a GI50 [15] of 46 nM and an inhibition of growth at 10 µM [16] of 90%. It also gave an inhibition of growth at 10 µM [17] of 47%, an inhibition of growth at 10 µM [20] of 49% and a GI50 [22] of 33 nM. It also gave an inhibition of growth at 10 µM [23] of 70%, a GI50 [26] of 38 nM and an inhibition of growth at 10 µM [27] of 77%. The inhibition of growth at 10 µM [29] was 93%, the inhibition of growth at 10 µM [30] was 50% and the GI50 [31] was 36 nM. The inhibition of growth at 10 µM [32] was 89%, the inhibition of growth at 10 µM [34] was 50% and the inhibition of growth at 10 µM [36] was 99%. For the same compound, the inhibition of growth at 10 µM [43] was 91%, the inhibition of growth at 10 µM [37] was 43% and the inhibition of growth at 10 µM [39] was 57%. For the same compound, the inhibition of growth at 10 µM [40] was 50%.

Work on `COc1ccc(CN2c3ccccc3Sc3ccccc32)c(C(F)(F)F)c1` yielded an inhibition of growth at 10 µM [1] of 98%, an inhibition of growth at 10 µM [2] of 51% and a GI50 [3] of 832 nM. For the same compound, the GI50 [4] was 456 nM, the GI50 [5] was 681 nM and the inhibition of growth at 10 µM [6] was 76%. For the same compound, the GI50 [7] was 546 nM, the GI50 [8] was 380 nM and the GI50 [9] was 227 nM. It also gave a GI50 [10] of 513 nM, a GI50 [11] of 446 nM and a GI50 [12] of 3000 nM. The inhibition of growth at 10 µM [13] was 69%, the inhibition of growth at 10 µM [14] was 94% and the GI50 [15] was 3430 nM. It also gave an inhibition of growth at 10 µM [16] of 74%, an inhibition of growth at 10 µM [17] of 45% and a GI50 [18] of 3980 nM. It also gave a GI50 [19] of 1180 nM, an inhibition of growth at 10 µM [20] of 50% and a GI50 [21] of 5.57 µM. It also gave a GI50 [22] of 349 nM, an inhibition of growth at 10 µM [23] of 73% and a GI50 [24] of 320 nM. It also gave a GI50 [25] of 500 nM, a GI50 [26] of 489 nM and an inhibition of growth at 10 µM [27] of 76%. For the same compound, the GI50 [28] was 412 nM, the inhibition of growth at 10 µM [29] was 90% and the inhibition of growth at 10 µM [30] was 56%. The GI50 [31] was 443 nM, the inhibition of growth at 10 µM [32] was 90% and the GI50 [33] was 3120 nM. It also gave an inhibition of growth at 10 µM [34] of 35%, a GI50 [35] of 462 nM and an inhibition of growth at 10 µM [36] of 100%. It also gave an inhibition of growth at 10 µM [37] of 7%, a GI50 [38] of 2220 nM and an inhibition of growth at 10 µM [39] of 54%. The inhibition of growth at 10 µM [40] was 57% and the GI50 [41] was 1030 nM.
